# According to patent US11634443B2, “Treprostinil prodrugs” (United Therapeutics Corporation, priority 2019, dated 2023):
# Experiment: Measured solubility at pH 6.5
# Format: physicochemical
row,SMILES,Measured Sol
1,CCCCC[C@@H](CC[C@@H]1[C@H]2Cc3cccc(OCC(=O)O)c3C[C@H]2C[C@H]1O)OC(=O)OCC [XVI],10 mg/mL
2,CCCCC[C@@H](CC[C@@H]1[C@H]2Cc3cccc(OCC(=O)O)c3C[C@H]2C[C@H]1O)OP(=O)(O)O [VI],> 10 mg/mL
